Values of other authors in patent US20150250887A1, “METHOD OF PREPARING RESIN TINCTURES” (JALEVA PHARMACEUTICALS, LLC, priority 2012, published 2015).
Read-outs that look alike come from different tables or passages of the source.

SMILES	log D (pH about 7.4)	other results
CC1=C(/C=C/C(C)=C/C=C/C(C)=C/C(=O)O)C(C)(C)CCC1 [tretinoin]	4.19	–
CC(=O)O.CC(=O)O.NC(=N\CCCCCC/N=C(N)/N=C(\N)Nc1ccc(Cl)cc1)/N=C(\N)Nc1ccc(Cl)cc1 [chlorhexidine acetate]	–	skin irritant properties (skin): strong skin irritant
CN1CCCC1c1cccnc1 (stereo not shown) [nicotine]	–	log D (pH 7.4): −0.62
CNS(=O)(=O)CCc1ccc2[nH]cc(C3CCN(C)CC3)c2c1 [naratriptan]	−0.85	–
C[C@]12CC[C@H]3[C@@H](CCC4=CC(=O)CC[C@@]43C)[C@@H]1CC[C@@H]2O [testosterone]	–	log D (pH 7.4): 3.18
O=C(O)Cc1ccccc1Nc1c(Cl)cccc1Cl [diclofenac]	1.44	–
N=C(NCCCCCCNC(=N)NC(=N)Nc1ccc(Cl)cc1)NC(=N)Nc1ccc(Cl)cc1.O=C(O)[C@H](O)[C@@H](O)[C@H](O)[C@H](O)CO.O=C(O)[C@H](O)[C@@H](O)[C@H](O)[C@H](O)CO [chlorhexidine gluconate]	–	skin irritant properties (skin): does not exhibit as strong irritant properties
Cc1nccn1CC1CCc2c(c3ccccc3n2C)C1=O (stereo not shown) [ondansetron]	1.2	–
CCCc1nn(C)c2c(=O)[nH]c(-c3cc(S(=O)(=O)N4CCN(C)CC4)ccc3OCC)nc12 [sildenafil]	2.26	–
CCCc1nc(C)c2c(=O)[nH]c(-c3cc(S(=O)(=O)N4CCN(CC)CC4)ccc3OCC)nn12 [vardenafil]	3.71	–
